{"source": "patent US20090011424A1", "about": "“Cancer-suppressing agents” (Tokyo Medical and Dental University, priority 2005, published 2009)", "test_system": "SMS-KAN cell", "assay": "messenger RNA expression analysis, AceGene Human oligo chip 30 K, NR1I2-expressing clone B1 vs control clone", "assay_type": "cell-based", "settings": "1st: Cy3-B1/Cy5-control", "text": "The NR1I2 gene has been known as a transcriptional factor. Thus, it is possible to know what type of gene expression is controlled by obtaining messenger RNAs from cells causing NR1I2 protein expression and cells not causing such expression, and comparing the expression levels thereof with each other. As described above, the NR1I2 gene protein may have an effect of inhibiting cancer. […] Therefore, pCMV-Tag3 vector not containing a foreign gene as a control was introduced into SMS-KAN cell, and pCMV-Tag3-VP-NR1I2 containing the NR1I2 gene as a test sample was introduced into SMS-KAN cell. As a result, a control cell clone and a cell clone B1 permanently causing NR1I2 protein expression were obtained. Thereafter, analysis of messenger RNA expression was carried out using these two types of cells and an AceGene Human oligo chip 30 K (DNA Chip Research Inc.), with which the expression levels of 30,000 human genes can be observed (Inoue. J., et al. Am J. Pathol. 165. 71. 2004). A complementary strand DNA (complimentary DNA) was prepared, into which aminoallyl-dUTP (Ambion Inc.) was incorporated using an Oligo (dT) 12-18 primer. Then, the aminoallyl group was labeled with reactive Cy3 (cyanin 3) and Cy5 (cyanin 5) (Amersham Biosciences) via a coupling reaction. Hybridization was performed twice (1st: Cy3-B1/Cy5-control; 2nd: Cy5-B1/Cy3-control). Signals were measured using a GenePix 4000B (Axon Instruments) so as to be analyzed by GenePix Pro 4.1 software (Axon Instruments). Tables 3 and 4 are lists of genes, where in the cases of SMS-KAN cells into which the NR1I2 gene had been introduced in the two experiments, the expression levels were 1.5-fold or greater than the expression level in the case of a control cell clone."}
{"substance": "NR1I2 gene: human-derived gene, nuclear receptor subfamily 1, group I, member 2 (pregnane X receptor, PXR), nucleotide sequence SEQ ID NO: 1", "values": [{"measurement": "ADAMTS2 expression level Ratio 1st", "value": 1.58}, {"measurement": "ADNP expression level Ratio 1st", "value": 1.61}, {"measurement": "AP3S2 expression level Ratio 1st", "value": 2.51}, {"measurement": "APEG1 expression level Ratio 1st", "value": 1.88}, {"measurement": "APOA1 expression level Ratio 1st", "value": 1.98}, {"measurement": "APP expression level Ratio 1st", "value": 2.03}, {"measurement": "ARHC expression level Ratio 1st", "value": 1.50}, {"measurement": "ARL2 expression level Ratio 1st", "value": 1.51}, {"measurement": "ASCL2 expression level Ratio 1st", "value": 2.43}, {"measurement": "ASH1 expression level Ratio 1st", "value": 1.81}, {"measurement": "B4GALT5 expression level Ratio 1st", "value": 1.54}, {"measurement": "BARD1 expression level Ratio 1st", "value": 1.90}, {"measurement": "BCAT2 expression level Ratio 1st", "value": 1.61}, {"measurement": "BLP2 expression level Ratio 1st", "value": 1.51}, {"measurement": "BMP15 expression level Ratio 1st", "value": 1.50}, {"measurement": "C6orf25 expression level Ratio 1st", "value": 1.74}, {"measurement": "CCNA1 expression level Ratio 1st", "value": 1.89}, {"measurement": "CDC7L1 expression level Ratio 1st", "value": 1.84}, {"measurement": "CISH expression level Ratio 1st", "value": 2.14}, {"measurement": "CORO2A expression level Ratio 1st", "value": 1.71}, {"measurement": "Cab45 expression level Ratio 1st", "value": 1.84}, {"measurement": "DKFZp434G05 expression level Ratio 1st", "value": 1.56}, {"measurement": "DKKL1 expression level Ratio 1st", "value": 1.53}, {"measurement": "DNA12 expression level Ratio 1st", "value": 1.52}, {"measurement": "EPHX1 expression level Ratio 1st", "value": 2.22}, {"measurement": "ERCC1 expression level Ratio 1st", "value": 1.82}, {"measurement": "ETR101 expression level Ratio 1st", "value": 1.65}, {"measurement": "EXT1 expression level Ratio 1st", "value": 1.87}, {"measurement": "FLJ10737 expression level Ratio 1st", "value": 1.51}, {"measurement": "FLJ12389 expression level Ratio 1st", "value": 2.16}, {"measurement": "FLJ13197 expression level Ratio 1st", "value": 2.95}, {"measurement": "FLJ13479 expression level Ratio 1st", "value": 1.92}, {"measurement": "FLJ20288 expression level Ratio 1st", "value": 1.81}, {"measurement": "FLJ20555 expression level Ratio 1st", "value": 1.51}, {"measurement": "FLJ23462 expression level Ratio 1st", "value": 1.64}, {"measurement": "FOFR3 expression level Ratio 1st", "value": 1.56}, {"measurement": "GLI2 expression level Ratio 1st", "value": 2.68}, {"measurement": "GNE expression level Ratio 1st", "value": 1.87}, {"measurement": "GSTT2 expression level Ratio 1st", "value": 3.23}, {"measurement": "GUCY1A3 expression level Ratio 1st", "value": 1.60}, {"measurement": "HHEX expression level Ratio 1st", "value": 1.55}, {"measurement": "HNT expression level Ratio 1st", "value": 1.55}, {"measurement": "HPCL2 expression level Ratio 1st", "value": 1.72}, {"measurement": "ICAM5 expression level Ratio 1st", "value": 1.52}, {"measurement": "IFIT4 expression level Ratio 1st", "value": 1.52}, {"measurement": "INSL6 expression level Ratio 1st", "value": 1.66}, {"measurement": "IRC039700 expression level Ratio 1st", "value": 2.12}, {"measurement": "KCNJ15 expression level Ratio 1st", "value": 1.88}, {"measurement": "KIAA0161 expression level Ratio 1st", "value": 1.54}, {"measurement": "KIAA0212 expression level Ratio 1st", "value": 2.01}, {"measurement": "LBP-9 expression level Ratio 1st", "value": 1.93}, {"measurement": "LDB1 expression level Ratio 1st", "value": 1.58}, {"measurement": "LICAM expression level Ratio 1st", "value": 1.87}, {"measurement": "LILRB5 expression level Ratio 1st", "value": 1.73}, {"measurement": "LOC51024 expression level Ratio 1st", "value": 1.67}, {"measurement": "LRP8 expression level Ratio 1st", "value": 1.52}, {"measurement": "LZLP expression level Ratio 1st", "value": 1.58}, {"measurement": "MAFG expression level Ratio 1st", "value": 2.51}, {"measurement": "MGC2306 expression level Ratio 1st", "value": 1.55}, {"measurement": "MGC2941 expression level Ratio 1st", "value": 1.90}, {"measurement": "MPP6 expression level Ratio 1st", "value": 1.67}, {"measurement": "MT-ACT48 expression level Ratio 1st", "value": 1.59}, {"measurement": "OCM expression level Ratio 1st", "value": 1.7}, {"measurement": "OMP expression level Ratio 1st", "value": 1.55}, {"measurement": "OPA3 expression level Ratio 1st", "value": 2.46}, {"measurement": "ORC5L expression level Ratio 1st", "value": 1.67}, {"measurement": "ORM1 expression level Ratio 1st", "value": 1.58}, {"measurement": "PCDHA4 expression level Ratio 1st", "value": 1.94}, {"measurement": "PCDHB10 expression level Ratio 1st", "value": 1.63}, {"measurement": "PDCD8 expression level Ratio 1st", "value": 2.00}, {"measurement": "PFKFB4 expression level Ratio 1st", "value": 4.90}, {"measurement": "PGAM1 expression level Ratio 1st", "value": 2.13}, {"measurement": "PITPN expression level Ratio 1st", "value": 1.73}, {"measurement": "PLA2G2A expression level Ratio 1st", "value": 3.01}, {"measurement": "PLCE1 expression level Ratio 1st", "value": 2.89}, {"measurement": "PLEKHA1 expression level Ratio 1st", "value": 1.54}, {"measurement": "PRO2121 expression level Ratio 1st", "value": 1.89}, {"measurement": "PRO2831 expression level Ratio 1st", "value": 1.51}, {"measurement": "RDH5 expression level Ratio 1st", "value": 1.62}, {"measurement": "RP1 expression level Ratio 1st", "value": 1.54}, {"measurement": "RPL39L expression level Ratio 1st", "value": 2.30}, {"measurement": "RPS16 expression level Ratio 1st", "value": 1.56}, {"measurement": "SC65 expression level Ratio 1st", "value": 1.56}, {"measurement": "SCD expression level Ratio 1st", "value": 1.74}, {"measurement": "SCN2B expression level Ratio 1st", "value": 1.52}, {"measurement": "SLC22A11 expression level Ratio 1st", "value": 1.66}, {"measurement": "SNAP91 expression level Ratio 1st", "value": 3.38}, {"measurement": "STK11 expression level Ratio 1st", "value": 1.62}, {"measurement": "SURF1 expression level Ratio 1st", "value": 1.92}, {"measurement": "TCEA1 expression level Ratio 1st", "value": 1.54}, {"measurement": "TGM2 expression level Ratio 1st", "value": 1.59}, {"measurement": "TIMM10 expression level Ratio 1st", "value": 1.87}, {"measurement": "TLAL1 expression level Ratio 1st", "value": 2.34}, {"measurement": "TMPRSS4 expression level Ratio 1st", "value": 1.55}, {"measurement": "TOP3B expression level Ratio 1st", "value": 1.59}, {"measurement": "TPARL expression level Ratio 1st", "value": 1.56}, {"measurement": "TRPV4 expression level Ratio 1st", "value": 1.77}, {"measurement": "TSPAN-1 expression level Ratio 1st", "value": 1.67}, {"measurement": "UXT expression level Ratio 1st", "value": 2.90}, {"measurement": "WHSC2 expression level Ratio 1st", "value": 1.65}]}
